US9757375B2, “Compounds that inhibit human DNA ligases and methods of treating cancer” (University of Maryland, Baltimore, priority 2007, dated 2017)
“Also recorded” adds a separate entry of the source. Read-outs that look alike come from different tables or passages of the source.

What was measured:
Assay in all cases: High-throughput fluorescence-based DNA joining (ligation) assay
Format in all cases: biochemical
[1] = biological target: T1, hLigI (Homo sapiens, UniProt P18858); conditions: for inhibition of hLigI (DNA ligase I), in words: in vitro screen, 100 μmol/L, the 15 hLigI inhibitors inhibited by >50%
T1 construct: made in house
Method in brief: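 Nicked DNA substrate (10 pmol) was incubated with 0.25 pmol hLigI, with or without 100 μmol/L test compound, in duplicate. Afterwards the DNA was denatured and renatured with a 20-fold excess of unmodified oligonucleotide. Ligation forms an AF488/BHQ1 hairpin, read as reduced fluorescence at 518 nm.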

[2] = biological target: human DNA ligase IV (Homo sapiens, UniProt P49917); conditions: for inhibition of human DNA ligase IV, in words: in vitro screen
Method in brief: (§1)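 Ligation joins an AF488-labelled and a BHQ1-labelled oligonucleotide. After denaturation and renaturation with a 20-fold excess of unlabelled competitor strand, the product forms a quenched hairpin, so joining is read as loss of 518 nm fluorescence. Ligase III used a nicked duplex; ligase IV used two duplexes with short complementary single-strand ends.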

[3] = biological target: T2, human DNA ligase III (Homo sapiens, UniProt P49916); conditions: for inhibition of human DNA ligase III, in words: in vitro screen
T2 sequence (P49916 1-862 isoform P49916-4): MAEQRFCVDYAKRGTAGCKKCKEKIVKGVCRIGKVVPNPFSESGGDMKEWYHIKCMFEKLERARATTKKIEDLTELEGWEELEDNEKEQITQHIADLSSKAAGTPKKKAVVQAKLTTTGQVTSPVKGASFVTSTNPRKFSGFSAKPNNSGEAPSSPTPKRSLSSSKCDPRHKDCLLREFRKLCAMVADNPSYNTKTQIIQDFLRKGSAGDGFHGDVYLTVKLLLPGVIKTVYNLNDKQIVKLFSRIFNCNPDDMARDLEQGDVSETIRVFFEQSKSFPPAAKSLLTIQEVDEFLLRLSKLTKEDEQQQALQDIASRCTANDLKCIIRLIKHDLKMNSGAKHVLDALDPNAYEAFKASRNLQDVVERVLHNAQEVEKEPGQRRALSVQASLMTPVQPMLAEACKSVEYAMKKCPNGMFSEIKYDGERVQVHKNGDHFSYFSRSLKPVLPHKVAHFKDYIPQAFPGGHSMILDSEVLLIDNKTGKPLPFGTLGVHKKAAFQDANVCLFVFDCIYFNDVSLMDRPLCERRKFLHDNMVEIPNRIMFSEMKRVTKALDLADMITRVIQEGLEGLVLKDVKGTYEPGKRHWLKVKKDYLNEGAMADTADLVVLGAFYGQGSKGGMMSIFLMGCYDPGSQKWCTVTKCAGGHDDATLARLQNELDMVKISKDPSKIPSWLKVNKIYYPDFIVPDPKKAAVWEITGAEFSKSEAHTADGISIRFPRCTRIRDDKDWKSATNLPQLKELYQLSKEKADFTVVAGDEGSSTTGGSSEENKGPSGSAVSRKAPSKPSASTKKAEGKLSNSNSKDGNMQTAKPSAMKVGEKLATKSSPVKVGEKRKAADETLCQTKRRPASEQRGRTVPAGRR
Method in brief: as §1

[4] = 100 uM, read-out: % activity Inhibition hLigI 100 uM
[5] = 100 μM, read-out: In vitro % inhib hLigI 100
[6] = 100 μM, read-out: In vitro % inhib hLigIV 100
[7] = 100 uM, Ø not defined (0 in Table 5A)
[8] = 100 μM, read-out: In vitro % inhib hLigIII 100
[9] = 100 μM, read-out: % of inhibition @ 100 μM (Helen's data) hLigI
[10] = 100 μM, read-out: % of inhibition @ 100 μM (Helen's data) hLigIV
[11] = 100 uM, Ø not defined (0 in Table 5A), read-out: % activity Inhibition hLigIV 100 uM
[12] = 100 uM, Ø not defined (0 in Table 5A), read-out: % activity Inhibition hLigIII 100 uM
[13] = read-out: % of inhibition @ 100 μM (Helen's data) hLigIII

Chain of human DNA ligase IV (P49917 whole entry): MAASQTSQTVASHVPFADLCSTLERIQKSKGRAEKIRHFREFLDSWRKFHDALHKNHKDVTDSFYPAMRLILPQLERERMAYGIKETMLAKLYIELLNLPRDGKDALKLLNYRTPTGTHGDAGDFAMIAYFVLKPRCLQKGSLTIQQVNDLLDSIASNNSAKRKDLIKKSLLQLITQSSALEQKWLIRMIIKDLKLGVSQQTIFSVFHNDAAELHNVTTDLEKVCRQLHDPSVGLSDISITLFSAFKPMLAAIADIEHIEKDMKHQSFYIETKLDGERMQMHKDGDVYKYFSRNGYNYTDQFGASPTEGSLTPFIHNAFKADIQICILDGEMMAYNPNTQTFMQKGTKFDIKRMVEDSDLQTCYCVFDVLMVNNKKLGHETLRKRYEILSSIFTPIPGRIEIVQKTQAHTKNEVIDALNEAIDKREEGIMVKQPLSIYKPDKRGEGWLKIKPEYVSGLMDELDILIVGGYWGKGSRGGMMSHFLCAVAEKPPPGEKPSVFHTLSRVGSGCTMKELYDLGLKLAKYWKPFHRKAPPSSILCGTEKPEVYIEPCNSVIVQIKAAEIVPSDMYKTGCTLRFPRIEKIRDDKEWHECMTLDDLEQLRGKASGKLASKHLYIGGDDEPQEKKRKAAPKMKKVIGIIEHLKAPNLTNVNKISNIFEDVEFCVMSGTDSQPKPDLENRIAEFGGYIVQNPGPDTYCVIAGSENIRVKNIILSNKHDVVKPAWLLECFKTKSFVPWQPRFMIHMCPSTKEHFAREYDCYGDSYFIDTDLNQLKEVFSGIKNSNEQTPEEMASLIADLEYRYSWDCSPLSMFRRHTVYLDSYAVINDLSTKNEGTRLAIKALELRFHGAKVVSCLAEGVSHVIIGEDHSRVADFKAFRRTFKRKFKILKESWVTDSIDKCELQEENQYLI
Chain of human DNA ligase IV (Q13426 whole entry partner): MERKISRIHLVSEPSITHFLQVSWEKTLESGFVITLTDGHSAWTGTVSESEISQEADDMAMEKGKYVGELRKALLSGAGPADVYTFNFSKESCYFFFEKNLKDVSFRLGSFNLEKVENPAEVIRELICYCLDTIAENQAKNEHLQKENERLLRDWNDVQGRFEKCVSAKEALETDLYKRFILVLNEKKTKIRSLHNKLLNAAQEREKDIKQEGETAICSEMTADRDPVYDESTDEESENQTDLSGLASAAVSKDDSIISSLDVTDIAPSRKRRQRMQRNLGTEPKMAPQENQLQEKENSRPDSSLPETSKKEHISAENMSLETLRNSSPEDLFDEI
T1 sequence (P18858 whole entry): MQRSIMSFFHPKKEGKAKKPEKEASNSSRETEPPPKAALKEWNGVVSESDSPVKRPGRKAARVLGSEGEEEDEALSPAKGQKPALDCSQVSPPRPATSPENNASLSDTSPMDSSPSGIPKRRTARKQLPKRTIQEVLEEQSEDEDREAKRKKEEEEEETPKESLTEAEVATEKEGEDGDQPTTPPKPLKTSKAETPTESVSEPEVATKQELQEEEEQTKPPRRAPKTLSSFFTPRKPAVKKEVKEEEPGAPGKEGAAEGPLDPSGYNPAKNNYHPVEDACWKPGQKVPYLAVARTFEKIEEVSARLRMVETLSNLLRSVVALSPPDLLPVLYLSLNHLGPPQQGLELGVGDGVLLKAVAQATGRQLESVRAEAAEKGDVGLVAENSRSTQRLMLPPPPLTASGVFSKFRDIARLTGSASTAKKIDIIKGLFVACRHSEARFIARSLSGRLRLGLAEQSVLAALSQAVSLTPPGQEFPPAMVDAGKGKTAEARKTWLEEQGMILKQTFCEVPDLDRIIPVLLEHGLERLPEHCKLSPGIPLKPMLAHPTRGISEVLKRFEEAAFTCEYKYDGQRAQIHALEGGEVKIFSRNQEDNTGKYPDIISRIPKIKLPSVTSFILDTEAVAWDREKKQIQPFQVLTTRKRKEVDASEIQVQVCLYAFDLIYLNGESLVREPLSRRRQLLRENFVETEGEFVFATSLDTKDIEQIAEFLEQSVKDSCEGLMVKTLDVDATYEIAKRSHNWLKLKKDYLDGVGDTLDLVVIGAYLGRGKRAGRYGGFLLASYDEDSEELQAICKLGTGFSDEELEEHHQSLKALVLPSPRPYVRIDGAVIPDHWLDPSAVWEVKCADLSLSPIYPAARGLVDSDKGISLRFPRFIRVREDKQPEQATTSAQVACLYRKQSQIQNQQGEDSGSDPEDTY

SMILES	inhibition at 100 µM [1, 4]	inhibition at 100 µM [1, 5]	inhibition of hLigI (DNA ligase I), in words [1]	inhibition at 100 µM [2, 6]	% activity Inhibition hLigIV 100 uM [2, 7]	inhibition at 100 µM [3, 8]	% activity Inhibition hLigIII 100 uM [3, 7]	inhibition at 100 µM [1, 9]	inhibition at 100 µM [2, 10]	inhibition of human DNA ligase IV, in words [2]	inhibition at 100 µM [3, 12]	inhibition of human DNA ligase III, in words [3]	inhibition at 100 µM [3, 13]	further results
C/C(O)=C1/C(=O)N(c2nc3ccccc3s2)N=C1c1ccccc1 [Compound 43]	29.2 ± 3.5%	29 ± 4%	specific for DNA ligase I	0%	Ø	0%	Ø							
O=C(O)CSc1cc(Cl)c2nonc2c1[N+](=O)[O-] [Compound 64]	60.6 ± 0.54%	61 ± 1%	inhibited hLigI; also recorded: inhibit all three human DNA ligases	52 ± 1%		49 ± 1%		61%	52%	inhibit all three human DNA ligases	48.5 ± 0.1%	inhibit all three human DNA ligases	49%	inhibition at 100 µM [2, 11]: 51.9 ± 1.2%
Cc1c(Br)cc(NCC(=O)N/N=C\c2cc([N+](=O)[O-])ccc2O)cc1Br [Compound 67]	78.3 ± 8.5%	78 ± 8%	inhibited hLigI; also recorded: inhibit hLigI but not T4 DNA ligase; also recorded: specifically inhibit DNA ligases I and III; also recorded: inhibit DNA ligase 1; also recorded: inhibits both hLigI and hLigIII	0%	Ø	88 ± 12%		78%	< 20%	do not inhibit DNA ligase IV	88.2 ± 11.6%	specifically inhibit DNA ligases I and III; also recorded: inhibits DNA ligase III; also recorded: inhibits both hLigI and hLigIII	88%	
O=c1[nH]ncc(N/N=C\c2ccc(O)c([N+](=O)[O-])c2)c1Cl [Compound 82]	59.8 ± 1.7%	60 ± 2%	inhibited hLigI; also recorded: inhibit hLigI but not T4 DNA ligase; also recorded: specific for DNA ligase I; also recorded: inhibit DNA ligase 1; also recorded: only inhibits DNA ligase I; also recorded: inhibits only hLigI	0%	Ø	29 ± 7%				do not inhibit DNA ligase IV	29.2 ± 7.3%			
O=C(Cn1cnc([N+](=O)[O-])n1)N/N=C/c1ccc(O)cc1O [Compound 151]	25.9 ± 1.2%	26 ± 1%	specific for DNA ligase I	0%	Ø	0%	Ø	25%	< 20%				< 20%	
O=C1Nc2ccccc2Oc2cc([N+](=O)[O-])cc([N+](=O)[O-])c21 [Compound 180]			inhibited hLigI										> 40%	inhibition at 100 µM ([1]; read-out: % of inhibition @ 100 μM (Helen's data) hLigI): 58%; inhibition at 100 µM ([2]; read-out: % of inhibition @ 100 μM (Helen's data) hLigIV): < 20%
CS(=O)(=O)NNC(=O)C(=O)NNc1ccccc1 [Compound 184]			specific for DNA ligase I		Ø		Ø							% activity Inhibition hLigI 100 uM ([1]; 100 uM): 37.7 ± 12.4%; % of inhibition @ 100 μM (Helen's data) hLigI ([1]; 100 μM): 38%; In vitro % inhib hLigI 100 (μM) ([1]; 100 μM): 38 ± 12%; % of inhibition @ 100 μM (Helen's data) hLigIV ([2]; 100 μM): NI (NI- no inhibition); In vitro % inhib hLigIV 100 (μM) ([2]; 100 μM): 0%; % of inhibition @ 100 μM (Helen's data) hLigIII ([3]; 100 μM): NI (NI- no inhibition); In vitro % inhib hLigIII 100 (μM) ([3]; 100 μM): 0%
Nc1nc(S)nc(O)c1/N=C/c1ccccc1 [Compound 189]	68.8 ± 4.9%	69 ± 5%	inhibited hLigI; also recorded: inhibit hLigI but not T4 DNA ligase; also recorded: inhibits all three human DNA ligases; also recorded: inhibit DNA ligase 1	41 ± 6%		53 ± 5%				inhibits all three human DNA ligases; also recorded: inhibits DNA ligase IV	52.6 ± 4.8%	inhibits all three human DNA ligases; also recorded: inhibits DNA ligase III		inhibition at 100 µM [2, 11]: > 50%
COc1ccc(-c2cnc3c(O)nc(O)nc3n2)cc1 [Compound 190]	52.5 ± 6.6%	53 ± 7%	inhibited hLigI; also recorded: specific for DNA ligase I	0%	Ø	0%	Ø							
Cc1oc(C(=O)O)cc1CSCc1cc(C(=O)O)c(C)o1 [Compound 197]	91 ± 6.9%	91 ± 7%	inhibited hLigI; also recorded: inhibit all three human DNA ligases	57 ± 3%		96 ± 4%		91%	57%	inhibit all three human DNA ligases	96.5 ± 3.5%	inhibit all three human DNA ligases	97%	inhibition at 100 µM [2, 11]: > 60%
O=C(c1ccc(O)cc1)c1ccccc1O [Compound 200]	50.7 ± 10.9%	51 ± 11%	inhibited hLigI; also recorded: specifically inhibit DNA ligases I and III	0%	Ø	60 ± 5%		51%	< 20%		59.5 ± 5.2%	specifically inhibit DNA ligases I and III	60%	
CCCCC(=O)c1ccc(O)cc1O [Compound 213]	36.4 ± 8.6%	36 ± 9%	specifically inhibit DNA ligases I and III	0%	Ø	25 ± 1%					25.2 ± 0.46%	specifically inhibit DNA ligases I and III		
